“Also recorded” adds a separate entry of the source.
Key:
p53 and MDM2 = test: p53/MDM2 co-immunoprecipitation and p53 forms after proteasome inhibition; format: cell-based, human; conditions: after proteasome inhibitor
Experimental: FIGS. 11A-11F illustrate status of p53 in human cardiac fibroblast cultures exposed to NRTIs and in rapamycin-treated cultures. FIG. 11A is a bar graph illustrating comet assay results for cells exposed to NRTIs or hydrogen peroxide as a positive control. The white bar represents control data; grey bar represents data from cells exposed to 10 or 20 μg/ml NRTI for 7 days; and the black bar represents data from cells exposed to 200 μM hydrogen peroxide for 2 hours. […] FIG. 11B depicts the results of an immunoprecipitation experiment using antibodies against p53. Cell lysates from control and rapamycin-treated cultures, with or without NRTI exposure for 7 days, were subjected to immunoprecipitation using anti-p53 antibodies followed by immunoblot analysis for MDM2 and subsequently for p53. […] FIG. 11F is a bar graph illustrating relative intensity of cytosolic MDM2 staining as determined by Image J Analysis.
Cell protein extracts were prepared by extracting with radioimmunoprecipitation assay (RIPA) buffer containing a protease inhibitor cocktail (Sigma-Aldrich) and phosphatase inhibitors, NaF and sodium orthovanadate. Protein concentration was quantified using a bicinchoninic acid (BCA) assay (Pierce Biotechnology). […] For co-immunoprecipitation, cell protein extracts were prepared in HNTG buffer containing a protease inhibitor cocktail and quantified using BCA assay. […]

human fibroblasts [1] = test: Long-term culture of human fibroblasts with or without rapamycin (lifespan, organization, p21 and IL-6 expression); format: cell-based
Experimental: FIG. 13 is a graph illustrating the finding that rapamycin treatment provides lifespan extension in human fibroblasts. Human fibroblast cells were growth in culture medium with or without rapamycin (1 nM). Cultures were split every 7 days and reseeded at identical cell number/cm^2 each week. The lifespan of normal human fibroblasts is counted by the number of times that the cells double.
FIG. 14 illustrates the finding that rapamycin preserves cell organization during aging of human fibroblasts. […] The ability to organize is a critical element of normal fibroblast function and contributes to tissue integrity in normal tissue. The disorganization which occurs with age contributes to functional decline.
FIG. 17 is a bar graph illustrating the finding that rapamycin prevents the expression of genes that cause senescence. The p21 gene makes a protein that is critical for senescence of human fibroblasts.
FIG. 18 is a bar graph illustrating the finding that rapamycin prevents the expression of genes related to inflammation. The IL-6 gene makes a protein that activates the immune system to recruit immune cells into an area of tissue damage.
Cell culture experiments utilizing NRTIs were of the following design. Cultures of either human lung or cardiac fibroblasts were cultivated according to standard culture protocols for these cells (Cristofalo, et al., Journal of Tissue Culture Methods 1980, 6:117-121). Parallel sets of cultures were maintained in normal growth media or in normal growth media with the addition of 1 nM rapamycin. Cultures were maintained with 1 nM rapamycin (Enzo Biologicals) for two weeks before exposure to NRTIs. Cell cultures were exposed to NRTIs at indicated concentrations in individual experiments (generally 10-20 μg/ml) for 7 days, with a change of media and fresh NRTIs at day 4. Mitochondrial measurements, bioanalyzer measurements, immunoblotting for protein expression and phosphorylation status, and assays for senescence were performed at the end of this 7-day period.

human fibroblasts [2] = test: Ethidium bromide mitochondrial stress in human fibroblasts
Excerpt: Human fibroblasts were exposed to ethidium bromide for 7 days and cell viability measured at that time.

[3] = cells grown in the presence of rapamycin

CO[C@H]1C[C@@H]2CC[C@@H](C)[C@@](O)(O2)C(=O)C(=O)N2CCCC[C@H]2C(=O)O[C@H]([C@H](C)C[C@@H]2CC[C@@H](O)[C@H](OC)C2)CC(=O)[C@H](C)/C=C(\C)[C@@H](O)[C@@H](OC)C(=O)[C@H](C)C[C@H](C)/C=C/C=C/C=C/1C [rapamycin]
high molecular weight forms of p53 (p53 and MDM2): prominent | IL-6 expression as cells age (human fibroblasts [1]; [3]): do not produce IL-6 | p21 expression as cells age (human fibroblasts [1]; [3]): do not produce p21 | cell organization during aging (human fibroblasts [1]; low doses of rapamycin): maintained an orderly growth pattern | replicative lifespan (number of times that the cells double) (human fibroblasts [1]; rapamycin 1 nM in culture medium): extend replicative lifespan; also recorded: well beyond the normal lifespan | survival of human fibroblasts following mitochondrial stress (human fibroblasts [2]; ethidium bromide for 7 days): increases the survival | mitochondrial network following exposure to EthBr (human fibroblasts [2]; rapamycin treated cells): able to maintain their mitochondrial network | mitochondrial network (human fibroblasts [2]; rapamycin treated cells, no toxin): normal mitochondrial network
